Source: ChEMBL document CHEMBL1201862, “PubChem BioAssay data set” (2004)
Calls of active or inactive are those of the source.

Assays:
[1] = Luminescence Cell-Based Dose Confirmation HTS to Identify Activators of 5'UTR Stem-Loop Driven Alpha-Synuclein mRNA Translation in H4 Neuroglioblastoma Cells. [Related pubchem assays: 1829 (Project Summary), 1814 (Primary HTS)]; format: functional
H4 = experiment: Luminescence Cell-Based Dose Response HTS to Identify Activators of 5'UTR Stem-Loop Driven Prion Protein mRNA Translation in H4 Neuroglioblastoma Cells. [Related pubchem assays: 1829 (Project Summary), 1814 (Primary HTS)]; format: functional; settings: Homo sapiens
[2] = Luminescence Cell-Based Dose Response HTS to Identify Activators of Luciferase Translation or Activity in H4 […] Cells. [Related pubchem assays: 1829 (Project Summary), 1814 (Primary HTS)]; format: functional
H9c2 = experiment: cells; format: functional, cell-based; settings: Rattus norvegicus, H9c2, Myocardium;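 further: confirmatory concentration-response retest of ultra-high-throughput screening hits for modulation of myocardial damage; cell death induced by hydrogen peroxide oxidative stress; compound pretreatment for 60 min then peroxide exposure for 2 h; potency is for protecting the cells against peroxide damage rather than for killing them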
[3] = target: T1, Ubiquitin-conjugating enzyme E2 N (Homo sapiens, UniProt P61088); format: functional;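 further: Dose-response confirmation in a TR-FRET assay detecting UBC13-driven polyubiquitin chain formation, inhibition measured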
T1 sequence (P61088 whole entry): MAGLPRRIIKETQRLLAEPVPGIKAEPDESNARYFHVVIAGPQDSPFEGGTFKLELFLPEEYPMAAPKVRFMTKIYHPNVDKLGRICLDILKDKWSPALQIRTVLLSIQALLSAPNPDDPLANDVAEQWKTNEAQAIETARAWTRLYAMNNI

[4] = target: T2, Zinc finger protein mex-5 (Caenorhabditis elegans, UniProt Q9XUB2); experiment: MEX-5/TCR-2 RNA interaction inhibitors, dose response, biochemical, C. elegans, fluorescence polarization (AID 1960)
T2 sequence (Q9XUB2 whole entry): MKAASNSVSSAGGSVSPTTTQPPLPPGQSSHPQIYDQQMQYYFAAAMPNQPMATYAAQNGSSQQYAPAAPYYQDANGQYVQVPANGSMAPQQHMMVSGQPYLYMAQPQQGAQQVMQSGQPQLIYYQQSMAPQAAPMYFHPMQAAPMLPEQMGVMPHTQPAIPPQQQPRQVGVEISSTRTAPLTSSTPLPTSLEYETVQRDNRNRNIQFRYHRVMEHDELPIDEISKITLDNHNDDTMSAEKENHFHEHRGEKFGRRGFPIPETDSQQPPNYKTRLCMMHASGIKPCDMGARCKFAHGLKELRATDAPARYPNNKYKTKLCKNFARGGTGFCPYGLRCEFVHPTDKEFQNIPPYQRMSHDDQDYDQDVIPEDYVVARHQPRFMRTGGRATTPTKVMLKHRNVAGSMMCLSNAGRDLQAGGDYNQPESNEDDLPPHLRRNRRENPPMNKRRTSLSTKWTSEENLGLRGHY

[5] = target: T3, RNA-binding protein pos-1 (Caenorhabditis elegans, UniProt G5EF15); experiment: inhibitors of POS-1/mex-3 RNA binding, dose response, biochemical, fluorescence polarization (AID 1964);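 further: purified POS-1 fused to maltose binding protein made in E. coli; potency of compounds blocking POS-1 binding to fluorescent RNA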
T3 sequence (G5EF15 whole entry): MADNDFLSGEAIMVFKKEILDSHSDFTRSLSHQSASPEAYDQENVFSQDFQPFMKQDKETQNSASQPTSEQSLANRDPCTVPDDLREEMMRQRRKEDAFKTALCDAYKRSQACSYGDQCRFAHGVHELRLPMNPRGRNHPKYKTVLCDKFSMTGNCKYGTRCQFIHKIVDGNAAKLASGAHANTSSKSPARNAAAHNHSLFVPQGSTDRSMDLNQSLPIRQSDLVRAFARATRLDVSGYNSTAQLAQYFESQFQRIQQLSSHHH

INS1 = experiment: beta cell apoptosis inhibitors, cytokine rescue, dose response, luminescence, retest (AID 449756); format: functional, cell-based; settings: Rattus norvegicus;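 further: cell death triggered by IL-1 beta plus TNF-alpha plus IFN-gamma mixture; protective hits raise ATP signal compared with cytokine alone wells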
[6] = target: FAD-linked sulfhydryl oxidase ALR (Homo sapiens, UniProt P55789); experiment: inhibitors of human ALR sulfhydryl oxidase, dose response, biochemical, H2O2 detection, luminescence, cherry-pick (AID 493248)
FAD-linked sulfhydryl oxidase ALR, sequence (P55789 whole entry): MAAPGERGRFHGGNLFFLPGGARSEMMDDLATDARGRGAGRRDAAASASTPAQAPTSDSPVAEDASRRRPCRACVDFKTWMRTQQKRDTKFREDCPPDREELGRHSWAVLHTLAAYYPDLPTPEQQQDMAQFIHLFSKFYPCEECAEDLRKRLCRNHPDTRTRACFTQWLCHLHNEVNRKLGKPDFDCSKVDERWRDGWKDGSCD

[7] = Shn3 3'UTR reporter inhibitors, dose response, cell-based, Clone20 osteoblasts, firefly luciferase, cherry-picked (AID 624132); format: functional;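 further: firefly luciferase luminescence from reporter carrying the Shn3 3'UTR in osteoblasts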
cells = format: functional

SMILES: Cc1cnc(C(=O)Nc2ccc(OC(F)(F)F)cc2)cn1
- EC50 [1]: 13.9 µM (active)
- EC50 (H4): 98.1 µM (active)
- EC50 [2]: 17.5 µM (active)

SMILES: Cc1cc(NC(=O)C2CCCCC2)nc2c1c(=O)oc1ccccc12
- IC50 (H9c2): 7.59 µM (active)

SMILES: Cc1cc(N2CCN(C)CC2)nc2ccc(NC(=S)N3CCN(c4cccc(Cl)c4)CC3)cc12
- IC50 [3]: > 20 µM (inactive)

SMILES: COc1ccc(NC2=C(Cl)C(=O)N(CCc3ccccc3)C2=O)c(OC)c1
- EC50 [1]: 5.35 µM (active)
- EC50 (H4): 33.2 µM (active)
- EC50 [2]: 8.34 µM (active)

SMILES: Cc1ccc(S(=O)(=O)C(C#N)c2nc3ccccc3nc2N2CCC(C)CC2)cc1 (stereo unspecified)
- EC50 [4]: 24.6 µM (active)
- EC50 [5]: > 300 µM (inconclusive)

SMILES: CCC(=O)OC1(C)C(=O)C=C2C=C(CCCC(=O)OC)OC=C2C1=O (stereo unspecified)
- EC50 [4]: 22.8 µM (active)
- EC50 [5]: 27.8 µM (active)

SMILES: COc1ccc(C2C=C(c3ccc(Br)s3)Nc3ncnn32)cc1OC (stereo unspecified)
- EC50 [4]: 6.36 µM (inconclusive)
- EC50 [5]: 7.82 µM (active)

SMILES: Cc1ccc(NC(=O)C2=C(O)CCn3c2nc2ccccc23)cc1
- EC50 [1]: > 120 µM (not active)
- EC50 (H4): > 60 µM (not active)
- EC50 [2]: 12.5 µM (active)

SMILES: CCn1ccnc1CN(C)Cc1nc(-c2ccc3c(c2)OCO3)no1
- EC50 [1]: 6.38 µM (active)
- EC50 (H4): 21.4 µM (active)
- EC50 [2]: 12.5 µM (active)

SMILES: COc1ccc(NC(=O)c2oc3ccc(S(=O)(=O)N4CCOCC4)cc3c2C)cc1
- IC50 (H9c2): > 79 µM (inactive)

SMILES: CCOC(=O)c1[nH]c(C)c(C(=O)Nc2ccc(C)c(Cl)c2)c1C
- EC50 [1]: > 120 µM (not active)
- EC50 (H4): > 120 µM (not active)
- EC50 [2]: 13.3 µM (active)

SMILES: CCC(=O)OC1(C)C(=O)C=C2C=C(CCCCNC(=O)OC(C)(C)C)OC=C2C1=O (stereo unspecified)
- EC50 [4]: 28.4 µM (active)
- EC50 [5]: 33.5 µM (active)

SMILES: COC(=O)c1ccccc1-n1c(CCC(=O)O)ccc1-c1ccccc1
- EC50 [4]: > 300 µM (not active)
- EC50 [5]: > 300 µM (not active)

SMILES: COc1ccccc1NC(=O)c1cc(-c2cc(OC)c(OC)c(OC)c2)nc2ccccc12
- IC50 (H9c2): > 79 µM (inactive)

SMILES: O=C1c2ccccc2C(=O)N1CCCc1nc(-c2ccncc2)no1
- EC50 [4]: > 300 µM (not active)
- EC50 [5]: > 300 µM (not active)

SMILES: COc1ccccc1CNC(=O)c1ccc2c(=O)n(CCCN3CCCC3=O)c(=S)[nH]c2c1
- IC50 [3]: > 20 µM (inactive)

SMILES: COC(=O)c1cc(OC)c(OC)cc1NC(=O)c1ccc(C)o1
- IC50 (H9c2): > 79 µM (inactive)

SMILES: CCn1c(C)cc(/C=C2\C(=O)NC(=O)N(c3ccccc3C)C2=O)c1C
- EC50 [4]: > 300 µM (not active)
- EC50 [5]: > 300 µM (not active)

SMILES: Cc1cc(NC(=O)c2cccs2)cc(-c2nc3ncccc3o2)c1O
- IC50 (H9c2): > 79 µM (inactive)

SMILES: O=C1N=C(Nc2ccccc2)S/C1=C\c1cccn1-c1ccccc1
- EC50 [1]: > 120 µM (not active)
- EC50 (H4): > 120 µM (not active)
- EC50 [2]: 32.5 µM (active)

SMILES: COc1ccccc1NCC(=O)N1CCN(S(=O)(=O)c2ccccc2)CC1
- AC50 (INS1): > 260 µM (inactive)

SMILES: O=C(NCCCN1CCCC1)c1ccc2c(c1)N(Cc1ccccc1)CCS2
- AC50 [6]: 0.022 µM (active)
- IC50 [3]: > 20 µM (inactive)

SMILES: Cc1ccc(S(=O)(=O)N2CCOCC2)cc1C(=O)Nc1ccc(S(=O)(=O)Nc2nccs2)cc1
- EC50 [4]: > 300 µM (not active)
- EC50 [5]: > 300 µM (not active)

SMILES: Cc1ccc2c(c1)CCCN2C(=O)CCc1nc(O)c2ccccc2n1
- IC50 (H9c2): > 79 µM (inactive)

SMILES: O=[N+]([O-])c1ccc2c(c1)nc(O)c1ccccc12
- IC50 (H9c2): > 79 µM (inactive)

SMILES: Cn1c(=O)c2nc(NN=Cc3cccc(Br)c3)[nH]c2n(C)c1=O
- IC50 (H9c2): > 79 µM (inactive)

SMILES: COc1ccc(C(O)c2nc(-c3cccc(F)c3)cs2)cc1 (stereo unspecified)
- AC50 [7]: 41.9 µM (active)

SMILES: O=C(N/N=C/c1ccccn1)c1cccc([N+](=O)[O-])c1
- IC50 (H9c2): > 79 µM (inactive)
- IC50 (cells): 22.2 µM (active)

SMILES: Cc1ccc(/N=C/c2c(O)[nH]c3ccccc23)c([N+](=O)[O-])c1
- EC50 (H4): 22.3 µM (inconclusive)
